The source of these data is patent US11912682B2, “Isoindolinone compounds” (Monte Rosa Therapeutics, Inc., priority 2021, dated 2024).

Where only a bound is given, the exact number is not on record here.

A word on the DC50: it is the concentration giving 50% degradation.

Chain of GSPT1 (P15170 whole entry): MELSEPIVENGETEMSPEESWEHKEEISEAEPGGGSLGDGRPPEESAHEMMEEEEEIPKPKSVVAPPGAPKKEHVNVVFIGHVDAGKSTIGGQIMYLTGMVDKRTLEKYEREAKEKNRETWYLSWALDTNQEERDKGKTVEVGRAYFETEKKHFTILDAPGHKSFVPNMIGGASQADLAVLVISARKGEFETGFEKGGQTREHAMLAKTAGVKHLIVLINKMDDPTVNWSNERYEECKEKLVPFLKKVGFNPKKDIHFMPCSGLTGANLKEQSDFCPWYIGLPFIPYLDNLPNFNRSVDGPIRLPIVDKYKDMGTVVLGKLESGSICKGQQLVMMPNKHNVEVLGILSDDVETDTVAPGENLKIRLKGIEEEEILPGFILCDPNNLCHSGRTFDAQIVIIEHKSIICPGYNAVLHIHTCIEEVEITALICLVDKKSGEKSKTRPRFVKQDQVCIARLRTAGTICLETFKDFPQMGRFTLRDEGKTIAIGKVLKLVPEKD
Chain of GSPT1 (Q96SW2 whole entry): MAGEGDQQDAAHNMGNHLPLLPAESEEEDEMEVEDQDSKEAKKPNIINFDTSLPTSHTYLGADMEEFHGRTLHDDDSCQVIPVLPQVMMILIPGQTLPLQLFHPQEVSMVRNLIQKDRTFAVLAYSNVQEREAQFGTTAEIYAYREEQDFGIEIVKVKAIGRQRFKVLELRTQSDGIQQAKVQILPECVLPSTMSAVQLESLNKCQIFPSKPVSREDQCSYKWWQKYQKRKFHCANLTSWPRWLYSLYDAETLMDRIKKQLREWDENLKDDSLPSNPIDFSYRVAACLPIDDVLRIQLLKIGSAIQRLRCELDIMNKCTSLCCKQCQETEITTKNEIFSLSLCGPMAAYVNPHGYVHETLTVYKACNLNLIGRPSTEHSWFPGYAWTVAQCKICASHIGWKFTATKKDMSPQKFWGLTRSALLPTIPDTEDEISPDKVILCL
Chain of GSPT1 (Q16531 2-1140 partner): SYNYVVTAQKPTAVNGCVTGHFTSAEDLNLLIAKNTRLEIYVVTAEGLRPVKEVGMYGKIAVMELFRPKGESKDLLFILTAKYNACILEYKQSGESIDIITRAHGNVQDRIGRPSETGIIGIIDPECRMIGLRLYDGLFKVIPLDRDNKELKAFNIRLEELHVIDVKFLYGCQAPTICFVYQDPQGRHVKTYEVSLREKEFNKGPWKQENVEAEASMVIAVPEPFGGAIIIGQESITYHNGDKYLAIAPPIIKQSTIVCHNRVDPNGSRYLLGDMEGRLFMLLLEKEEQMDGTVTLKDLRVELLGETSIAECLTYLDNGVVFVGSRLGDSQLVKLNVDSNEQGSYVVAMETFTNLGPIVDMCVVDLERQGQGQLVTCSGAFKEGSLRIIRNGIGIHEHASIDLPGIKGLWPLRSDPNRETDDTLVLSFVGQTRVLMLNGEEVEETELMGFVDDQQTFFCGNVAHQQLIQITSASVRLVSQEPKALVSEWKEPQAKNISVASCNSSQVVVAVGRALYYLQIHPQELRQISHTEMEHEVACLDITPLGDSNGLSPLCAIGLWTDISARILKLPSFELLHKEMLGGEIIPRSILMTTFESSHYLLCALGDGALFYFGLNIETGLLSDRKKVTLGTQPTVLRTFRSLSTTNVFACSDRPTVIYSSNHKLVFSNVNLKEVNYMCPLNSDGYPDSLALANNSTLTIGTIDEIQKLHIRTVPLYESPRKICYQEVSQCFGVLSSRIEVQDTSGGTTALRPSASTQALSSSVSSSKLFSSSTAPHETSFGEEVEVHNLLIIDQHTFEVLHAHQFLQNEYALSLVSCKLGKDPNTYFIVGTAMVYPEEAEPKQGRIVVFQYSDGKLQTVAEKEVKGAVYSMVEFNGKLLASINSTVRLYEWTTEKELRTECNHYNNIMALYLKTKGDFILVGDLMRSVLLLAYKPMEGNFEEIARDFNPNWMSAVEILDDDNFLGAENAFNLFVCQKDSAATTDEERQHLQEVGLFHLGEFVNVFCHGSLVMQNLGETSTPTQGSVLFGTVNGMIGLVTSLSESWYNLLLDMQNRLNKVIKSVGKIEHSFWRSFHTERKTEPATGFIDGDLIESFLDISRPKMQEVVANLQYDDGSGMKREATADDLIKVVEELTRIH

For the assay, the target named is GSPT1 (Homo sapiens (Human), UniProt P15170+Q96SW2). Nature of the assay: immunofluorescence assay for GSPT1 degradation in CAL-51 cells (Example 10). In kind it is cell-based. Particulars: CAL-51 cells, 6 h; read-out: IF Class (GSPT1 degradation DC50). Here is the method:
The representative compounds were tested in an immunofluorescence assay for their activity to degrade GSPT1. […] Compounds were stored at 10 mM DMSO stocks. […] Cells were subsequently rinsed with PBS and fixed in 10% Formalin solution (50 μl, Sigma HT5011)) for 20 mins at room temperature. […] Following three further PBS washes, 50 μL blocking buffer (1% BSA, Sigma A4503, in PBS) was added for 45 min for signal-to noise reduction. Primary antibody (human GSPT1, Sigma HPA052488) was diluted in blocking buffer (dil.1/300, 35 μL/well) and incubated with the cells overnight at 4° C. […] After three final PBS washes, samples were conserved in 100 μL PBS in the dark, until measurement. Image acquisition was performed on the Operetta High-Content Imager (Perkin-Elmer). […] For the determination of GSPT1 DC50 values, a custom algorithm implemented in the PerkinElmer image analysis software Harmony-Acapella® was developed. After user-defined setting of adjustment parameters, the analysis was run identically without human intervention for all image fields. DAPI staining of the nuclei was used to determine the location of cells using standard nuclei detection modules. Segmentation artifacts were removed by threshold-based filters for area, roundness and intensity. The outline of the cells was determined analogously from the sum of the normalized, smoothed DAPI and Actin channel, starting from each nucleus. […] GSPT1 degradation (DC50) was calculated after normalization to controls and data import in CDD vault Database, using non-linear regression.
On to `Cc1cc(F)c(NC(=O)OCc2ccc3c(c2)C(=O)N(C2CCC(=O)NC2=O)C3)c(F)c1Cl` (stereo not drawn) [Compound 211, (2-(2,6-dioxopiperidin-3-yl)-3-oxoisoindolin-5-yl)methyl (3-chloro-2,6-difluoro-4-methylphenyl)carbamate], for which the DC50 was 30 to 300 nM.

Take `O=C1CCC(N2Cc3ccc(COC(=O)Nc4cc(F)c5c(c4)CCO5)cc3C2=O)C(=O)N1` (stereo not drawn) [Compound 212, (2-(2,6-dioxopiperidin-3-yl)-3-oxoisoindolin-5-yl)methyl (7-fluoro-2,3-dihydrobenzofuran-5-yl)carbamate]: the DC50 is less than 30 nM.

`Cc1cc(F)c(NC(=O)OCc2ccc3c(c2)C(=O)N(C2CCC(=O)NC2=O)C3)cc1F` (stereo not drawn) [Compound 213, (2-(2,6-dioxopiperidin-3-yl)-3-oxoisoindolin-5-yl)methyl (2,5-difluoro-4-methylphenyl)carbamate]: the DC50 was greater than 300 nM.

Consider `O=C1CCC(N2Cc3ccc(COC(=O)NC45CC(N6CCOCC6)(C4)C5)cc3C2=O)C(=O)N1` (stereo not drawn) [Compound 215, (2-(2,6-dioxopiperidin-3-yl)-3-oxoisoindolin-5-yl)methyl (3-morpholinobicyclo[1.1.1]pentan-1-yl)carbamate], for which the DC50 is greater than 300 nM.

With `O=C1CCC(N2Cc3ccc(COC(=O)Nc4cccc(C5CC5)c4)cc3C2=O)C(=O)N1` (stereo not drawn) [Compound 216, (2-(2,6-dioxopiperidin-3-yl)-3-oxoisoindolin-5-yl)methyl (3-cyclopropylphenyl)carbamate], the DC50 was less than 30 nM.

Turning to `CC(C)c1cccc(NC(=O)OCc2ccc3c(c2)C(=O)N(C2CCC(=O)NC2=O)C3)c1` (stereo not drawn) [Compound 217, (2-(2,6-dioxopiperidin-3-yl)-3-oxoisoindolin-5-yl)methyl (3-isopropylphenyl)carbamate], the DC50 was less than 30 nM.

Consider `O=C1CCC(N2Cc3ccc(COC(=O)NC45CC(C(F)F)(C4)C5)cc3C2=O)C(=O)N1` (stereo not drawn) [Compound 219, (2-(2,6-dioxopiperidin-3-yl)-3-oxoisoindolin-5-yl)methyl (3-(difluoromethyl)bicyclo[1.1.1]pentan-1-yl) carbamate], for which the DC50 was greater than 300 nM.

As for `CCc1cccc(NC(=O)OCc2ccc3c(c2)C(=O)N(C2CCC(=O)NC2=O)C3)c1` (stereo not drawn) [Compound 220, (2-(2,6-dioxopiperidin-3-yl)-3-oxoisoindolin-5-yl)methyl (3-ethylphenyl)carbamate], the DC50 was less than 30 nM.

On to `CC(C)Oc1ccc(F)c(NC(=O)OCc2ccc3c(c2)C(=O)N(C2CCC(=O)NC2=O)C3)c1` (stereo not drawn) [Compound 221, (2-(2,6-dioxopiperidin-3-yl)-3-oxoisoindolin-5-yl)methyl (2-fluoro-5-isopropoxyphenyl)carbamate], for which the DC50 fell in the range of 30 to 300 nM.

With `CC(C)(C)Oc1ccc(F)c(NC(=O)OCc2ccc3c(c2)C(=O)N(C2CCC(=O)NC2=O)C3)c1` (stereo not drawn) [Compound 222, (2-(2,6-dioxopiperidin-3-yl)-3-oxoisoindolin-5-yl)methyl (5-(tert-butoxy)-2-fluorophenyl)carbamate], the DC50 was in the range of 30 to 300 nM.

As to `CCOc1ccc(F)c(NC(=O)OCc2ccc3c(c2)C(=O)N(C2CCC(=O)NC2=O)C3)c1` (stereo not drawn) [Compound 223, (2-(2,6-dioxopiperidin-3-yl)-3-oxoisoindolin-5-yl)methyl (5-ethoxy-2-fluorophenyl)carbamate], the DC50 was greater than 300 nM.

For the compound `O=C1CCC(N2Cc3ccc(COC(=O)NC45C6C7C4C4C5C6C74c4ccccc4)cc3C2=O)C(=O)N1` (stereo not drawn) [Compound 225, (2-(2,6-dioxopiperidin-3-yl)-3-oxoisoindolin-5-yl)methyl (4-phenylcuban-1-yl)carbamate], the DC50 is greater than 300 nM.

`CCCOc1ccc(F)c(NC(=O)OCc2ccc3c(c2)C(=O)N(C2CCC(=O)NC2=O)C3)c1` (stereo not drawn) [Compound 226, (2-(2,6-dioxopiperidin-3-yl)-3-oxoisoindolin-5-yl)methyl (2-fluoro-5-propoxyphenyl)carbamate]: the DC50 is 30 to 300 nM.

Consider `O=C1CCC(N2Cc3ccc(COC(=O)Nc4cc(OC(F)F)c(F)cn4)cc3C2=O)C(=O)N1` (stereo not drawn) [Compound 227, (2-(2,6-dioxopiperidin-3-yl)-3-oxoisoindolin-5-yl)methyl (4-(difluoromethoxy)-5-fluoropyridin-2-yl)carbamate], for which the DC50 was greater than 300 nM.

In the case of `CCOc1cc(NC(=O)OCc2ccc3c(c2)C(=O)N(C2CCC(=O)NC2=O)C3)c(F)cc1C` (stereo not drawn) [Compound 228], the DC50 is less than 30 nM.

Take `COc1cc(NC(=O)OCc2ccc3c(c2)C(=O)N(C2CCC(=O)NC2=O)C3)c(F)cc1C` (stereo not drawn) [Compound 229, (2-(2,6-dioxopiperidin-3-yl)-3-oxoisoindolin-5-yl)methyl (2-fluoro-5-methoxy-4-methylphenyl)carbamate]: the DC50 lay within 30 to 300 nM.

Turning to `Cc1cc(F)c(NC(=O)OCc2ccc3c(c2)C(=O)N(C2CCC(=O)NC2=O)C3)cc1OC(C)C` (stereo not drawn) [Compound 230, (2-(2,6-dioxopiperidin-3-yl)-3-oxoisoindolin-5-yl)methyl (2-fluoro-5-isopropoxy-4-methylphenyl)carbamate], the DC50 was less than 30 nM.

In the case of `CCCOc1cc(NC(=O)OCc2ccc3c(c2)C(=O)N(C2CCC(=O)NC2=O)C3)c(F)cc1C` (stereo not drawn) [Compound 231, (2-(2,6-dioxopiperidin-3-yl)-3-oxoisoindolin-5-yl)methyl (2-fluoro-4-methyl-5-propoxyphenyl)carbamate], the DC50 is less than 30 nM.

`C[C@@H]1CCCN1c1cnc(NC(=O)OCc2ccc3c(c2)C(=O)N(C2CCC(=O)NC2=O)C3)c(F)c1` (stereo partly drawn) [Compound 232, (2-(2,6-dioxopiperidin-3-yl)-3-oxoisoindolin-5-yl)methyl (3-fluoro-5-((R)-2-methylpyrrolidin-1-yl)pyridin-2-yl)carbamate]: the DC50 is 30 to 300 nM.

Turning to `Cc1cc(F)c(NC(=O)OCc2ccc3c(c2)C(=O)N(C2CCC(=O)NC2=O)C3)cc1C(F)(F)F` (stereo not drawn) [Compound 233], the DC50 was 30 to 300 nM.

As to `CC(F)(F)c1ccc(F)c(NC(=O)OCc2ccc3c(c2)C(=O)N(C2CCC(=O)NC2=O)C3)c1` (stereo not drawn) [Compound 234], the DC50 is greater than 300 nM.

With `CC(C)(C)c1ccc(F)c(NC(=O)OCc2ccc3c(c2)C(=O)N(C2CCC(=O)NC2=O)C3)c1` (stereo not drawn) [Compound 235], the DC50 lay in the range of 30 to 300 nM.

On to `CC1(c2ccc(NC(=O)OCc3ccc4c(c3)C(=O)N(C3CCC(=O)NC3=O)C4)cc2Cl)COC1` (stereo not drawn) [Compound 236, (2-(2,6-dioxopiperidin-3-yl)-3-oxoisoindolin-5-yl)methyl (3-chloro-4-(3-methyloxetan-3-yl)phenyl)carbamate], for which the DC50 was less than 30 nM.

On to `Cc1cc(NC(=O)OCc2ccc3c(c2)C(=O)N(C2CCC(=O)NC2=O)C3)ncc1N1CCC[C@H]1C` (stereo partly drawn) [Compound 237, (2-(2,6-dioxopiperidin-3-yl)-3-oxoisoindolin-5-yl)methyl (4-methyl-5-((R)-2-methylpyrrolidin-1-yl)pyridin-2-yl)carbamate], for which the DC50 lay in the range of 30 to 300 nM.

As for `O=C1CCC(N2Cc3ccc(COC(=O)Nc4ccc(C(O)C(F)(F)F)nc4)cc3C2=O)C(=O)N1` (stereo not drawn) [Compound 238], the DC50 was greater than 300 nM.

In the case of `O=C1CCC(N2Cc3ccc(COC(=O)Nc4cccc(Cl)c4)cc3C2=O)C(=O)N1` (stereo not drawn) [Compound 239, (2-(2,6-dioxopiperidin-3-yl)-3-oxoisoindolin-5-yl)methyl (3-chlorophenyl)carbamate], the DC50 is less than 30 nM.

As to `CC1(c2ccc(NC(=O)OCc3ccc4c(c3)C(=O)N(C3CCC(=O)NC3=O)C4)cc2F)COC1` (stereo not drawn) [Compound 240, (2-(2,6-dioxopiperidin-3-yl)-3-oxoisoindolin-5-yl)methyl (3-fluoro-4-(3-methyloxetan-3-yl)phenyl)carbamate], the DC50 lay in the range of 30 to 300 nM.
